Assay [1] concerns the target T1, Cyclin-dependent kinase 2 (Homo sapiens, UniProt P24941). Kind of assay: Binding affinity to N-terminal His-tagged recombinant human CDK2 (1 to 298 amino acid residues) expressed in Escherichia coli BL21 assessed as inhibition of interaction with cyclin A3 by measuring HHASPRK phosphorylation at 100 uM by ADP-Glo Max assay relative to control. (ADP-Glo first removes unused ATP, then detects ADP through luciferase.)

Assay [2] concerns the target T1, Cyclin-dependent kinase 2. Nature of the assay: Binding affinity to N-terminal His-tagged recombinant human CDK2 (1 to 298 amino acid residues) expressed in Escherichia coli BL21 assessed as inhibition of interaction with cyclin A3 by measuring 250 uM HHASPRK phosphorylation by ADP-Glo Max assay in presence of 75 uM ATP.
Assay [3] concerns the target T1, Cyclin-dependent kinase 2. Nature of the assay: Binding affinity to N-terminal His-tagged recombinant human CDK2 (1 to 298 amino acid residues) expressed in Escherichia coli BL21 assessed as inhibition of interaction with cyclin A3 by measuring 250 uM HHASPRK phosphorylation by ADP-Glo Max assay in presence of 375 uM ATP.
The target of assay [4] is T1, Cyclin-dependent kinase 2. Nature of the assay: Binding affinity to N-terminal His-tagged recombinant human CDK2 (1 to 298 amino acid residues) expressed in Escherichia coli BL21 assessed as inhibition of interaction with cyclin A3 by measuring 250 uM HHASPRK phosphorylation by ADP-Glo Max assay in presence of 750 uM ATP.
Assay [5] deals with T1, Cyclin-dependent kinase 2. Kind of assay: Binding affinity to N-terminal His-tagged recombinant human CDK2 (1 to 298 amino acid residues) expressed in Escherichia coli BL21 assessed as inhibition of interaction with cyclin A3 by measuring 1.25 mM HHASPRK phosphorylation by ADP-Glo Max assay in presence of 75 uM ATP.
In assay [6] the target is T1, Cyclin-dependent kinase 2. Kind of assay: Binding affinity to N-terminal His-tagged recombinant human CDK2 (1 to 298 amino acid residues) expressed in Escherichia coli BL21 assessed as inhibition of interaction with cyclin A3 by measuring 2.5 mM HHASPRK phosphorylation by ADP-Glo Max assay in presence of 75 uM ATP.
In assay [7] the target is Cyclin-dependent kinase 2 (Homo sapiens, UniProt P24941, R150A). Kind of assay: Binding affinity to human CDK2 R150A mutant expressed in Escherichia coli BL21 assessed as inhibition of interaction with cyclin A3 by measuring HHASPRK phosphorylation by ADP-Glo Max assay.
For assay [8], the target named is Cyclin-dependent kinase 2 (Homo sapiens, UniProt P24941, Y180A). Nature of the assay: Binding affinity to human CDK2 Y180A mutant expressed in Escherichia coli BL21 assessed as inhibition of interaction with cyclin A3 by measuring HHASPRK phosphorylation by ADP-Glo Max assay.
The subject of assay [9] is A549. Kind of assay: Cytotoxicity against human A549 cells assessed as cell viability after 72 hrs by MTS assay. It is filed as functional, cell-based. (In general: Tetrazolium assays rely on reduction of a dye to a coloured formazan, in cell work by metabolically active cells.)
The test system of assay [10] is HepG2. Kind of assay: Cytotoxicity against human HepG2 cells assessed as cell viability after 72 hrs by MTS assay. It is filed as functional, cell-based.
For assay [11], the system named is MDA-MB-231. Nature of the assay: Cytotoxicity against human MDA-MB-231 cells assessed as cell viability after 72 hrs by MTS assay. The assay is classed as functional, cell-based.
For assay [12], the system named is A549. Nature of the assay: Cell cycle arrest in human A549 cells assessed as accumulation at G0/G1 phase at 10 uM after 72 hrs by propidium iodide staining-based flow cytometric analysis (reference value: 68.68%). The assay is classed as functional. (In general: In flow cytometry, cells or beads pass a laser one at a time.)
In assay [13] the test system is A549. Kind of assay: Cell cycle arrest in human A549 cells assessed as accumulation at S phase at 10 uM after 72 hrs by propidium iodide staining-based flow cytometric analysis (reference value: 11.53%). The assay is classed as functional.
Assay [14] has as its system A549. Nature of the assay: Cell cycle arrest in human A549 cells assessed as accumulation at G2/M phase at 10 uM after 72 hrs by propidium iodide staining-based flow cytometric analysis (reference value: 19.79%). The assay is classed as functional.
For assay [15], the system named is A549. Kind of assay: Cell cycle arrest in human A549 cells assessed as accumulation at G0/G1 phase at 25 uM after 72 hrs by propidium iodide staining-based flow cytometric analysis (reference value: 68.68%). It is filed as functional.
The test system of assay [16] is A549. Nature of the assay: Cell cycle arrest in human A549 cells assessed as accumulation at S phase at 25 uM after 72 hrs by propidium iodide staining-based flow cytometric analysis (reference value: 11.53%). The assay is classed as functional.
In assay [17] the test system is A549. Nature of the assay: Cell cycle arrest in human A549 cells assessed as accumulation at G2/M phase at 25 uM after 72 hrs by propidium iodide staining-based flow cytometric analysis (reference value: 19.79%). It is filed as functional.
The test system of assay [18] is A549. Kind of assay: Cell cycle arrest in human A549 cells assessed as accumulation at G0/G1 phase at 50 uM after 72 hrs by propidium iodide staining-based flow cytometric analysis (reference value: 68.68%). It is filed as functional.
For assay [19], the system named is A549. Nature of the assay: Cell cycle arrest in human A549 cells assessed as accumulation at S phase at 50 uM after 72 hrs by propidium iodide staining-based flow cytometric analysis (reference value: 11.53%). The assay is classed as functional.
The subject of assay [20] is A549. Nature of the assay: Cell cycle arrest in human A549 cells assessed as accumulation at G2/M phase at 50 uM after 72 hrs by propidium iodide staining-based flow cytometric analysis (reference value: 19.79%). The assay is classed as functional.
The test system of assay [21] is A549. Kind of assay: Cell cycle arrest in human A549 cells assessed as accumulation at G0/G1 phase at 200 uM after 72 hrs by propidium iodide staining-based flow cytometric analysis (reference value: 68.68%). The assay is classed as functional.
Assay [22] has as its system A549. Kind of assay: Cell cycle arrest in human A549 cells assessed as accumulation at S phase at 200 uM after 72 hrs by propidium iodide staining-based flow cytometric analysis (reference value: 11.53%). It is filed as functional.
The test system of assay [23] is A549. Kind of assay: Cell cycle arrest in human A549 cells assessed as accumulation at G2/M phase at 200 uM after 72 hrs by propidium iodide staining-based flow cytometric analysis (reference value: 19.79%). The assay is classed as functional.
Assay [24] has as its target T1, Cyclin-dependent kinase 2. Nature of the assay: Binding affinity to GST-tagged recombinant human CDK2 (1 to 298 amino acid residues) expressed in Escherichia coli BL21 assessed as inhibition of interaction with His-tagged cyclin A3 preincubated overnight with GST-tagged protein followed by His-tagged cyclin A3 addition by GST pull down assay.

Data on 15 molecules can be found in ChEMBL document CHEMBL3616388, “Discovery of novel nonpeptide allosteric inhibitors interrupting the interaction of CDK2/cyclin A3 by virtual screening and bioassays” (Bioorg Med Chem Lett, 2015).

pIC50: −log10 of the molar value.

Usually inhibition stands for how much of the control response was suppressed. For orientation: pIC50 means the negative decadic logarithm of the IC50, by convention in mol/L.

As for `C/C(Cc1ccccc1)=N\Nc1nnc2c(n1)[nH]c1ccccc12`, the inhibition in assay [1] came to 35.2%.

On to `Cn1c(=O)[nH]c(=O)c2c1nc(N/N=C1/C(=O)Nc3ccccc31)n2CC(O)COc1ccccc1` (centres undefined), for which the inhibition in assay [1] is less than 5%.

For the molecule `Cc1[nH]c2ccccc2c1/C=N/c1ccccc1C(=O)O`, in [1], the inhibition is less than 5%.

For the molecule `CCN(C(=O)CCNC(=O)Cn1cnc2ccccc2c1=O)c1cccc(C(F)(F)F)c1`, the inhibition in assay [1] stood at 8.39%.

As for `CCOc1cc(C(=O)Nc2ccc(S(=O)(=O)Nc3nc(C)cc(C)n3)cc2)cc(OCC)c1OCC`, the inhibition in assay [1] worked out at 62.3%. Also, the pIC50 in assay [2] was 3.98.

With `CCOC(=O)C(Cc1ccc(OC)c([N+](=O)[O-])c1)NC(=O)CCC(=O)Nc1ccc(S(N)(=O)=O)cc1` (centres undefined), the inhibition in [1] is less than 5%.

For the molecule `O=C(CSc1nc2ccc(NC(=O)CSCC(=O)Nc3ccc4ccccc4c3)cc2s1)NCCOc1ccccc1`, the inhibition in assay [1] was less than 5%.

Turning to `Cc1ccccc1C(=O)N(Cc1ccc(C(F)(F)F)cc1)c1ccc(CC(=O)NCc2ccc(F)cc2)cc1`, in assay [1], the inhibition was found to be 37.5%.

As for `CC(=O)C1=C(O)C(=O)N(CO)C1c1ccccc1` (centres undefined), the inhibition in assay [1] is less than 5%.

With `CSc1ccc(/C=N/c2cc([N+](=O)[O-])ccc2O)cc1`, the inhibition in [1] was found to be 65.5%. The pIC50 was 4.28 in assay [2]; 4.11 in assay [3]; 4.26 in assay [4]; 4.24 in assay [5]; 4.16 in assay [6]; 3.05 in assay [7]. Moreover, the pIC50 in assay [8] is 3.82. For the same molecule, the Activity entry in assay [9] is “Dose-dependent effect”; in assay [10], “Dose-dependent effect”; in assay [11], “Dose-dependent effect”; in assay [12], 66.03%; in [13], 15.21%; in assay [14] it was 18.76%. For the same molecule, the Activity in assay [15] was 65.26%; in assay [16], 21.91%; in assay [17] it was 12.83%; in assay [18] it was 60.8%; in assay [19], 26.21%; in assay [20], 12.99%. The Activity in assay [21] was 43.49%; in assay [22], 41.3%; in [23], 15.2%; in [24], “Dose-dependent effect”.

Regarding `Cc1cc(C)nc(NS(=O)(=O)c2ccc(NC(=O)CCCCC(=O)Nc3ccc(S(=O)(=O)Nc4nc(C)cc(C)n4)cc3)cc2)n1`, the inhibition in [1] is 38%.

Turning to `OC(CN1CCN(CC(O)Cn2c3ccc(Br)cc3c3cc(Br)cc(Br)c32)CC1)Cn1c2ccccc2c2ccccc21` (centres undefined), the inhibition in [1] was 31%.

Take `Cc1ccc(S(=O)(=O)Nc2ccc(C(=O)N3N=C(c4c(-c5ccccc5)c5cc(Br)ccc5[nH]c4=O)CC3c3ccccc3)cc2)cc1` (centres undefined): the inhibition in [1] was less than 5%.

Turning to `COc1ccccc1OCCOc1ccccc1/C=c1\sc2n(c1=O)C(c1ccccc1)C(C(=O)Nc1ccccc1)=C(C)N=2` (centres undefined), the inhibition in [1] was less than 5%.

Turning to `CN1C(=O)c2cccc3c(S(=O)(=O)NCCC(=O)O)ccc1c23`, the inhibition in [1] was 5.54%.
